Assay results: US10100008B2, “Immunostimulating agent” (AJINOMOTO CO., INC., priority 2014, dated 2018)
Where two headings read alike, the source gives them in different places.

Columns and labels:
[1] = test system: anti OVA-specific IgG1 subclass antibody; test: Adjuvant activity test: anti OVA-specific IgG1 subclass antibody in serum after subcutaneous immunization with OVA; format: in vivo, BALB/c mice; settings: for production of anti OVA-specific IgG1 subclass antibody: dorsal-subcutaneous
Method: One week later, the secondary immunization was carried out by dorsal-subcutaneous administration of solutions similar to those of the above-mentioned (1) to (5) again. Two weeks from the secondary immunization, the whole blood and spleen were extracted under anesthesia, and the obtained serum sample was measured for anti OVA-specific IgG1 subclass antibody. A method for measurement of the anti OVA-specific IgG1 subclass antibody in Example 1, and the following Examples 2, 4, 7 to 10 and 13 to 16 is as follows.
To a 96 well plate was added 5 μg/ml OVA at 100 μl/well, and the mixture was incubated at 4° C. overnight. After incubation, the mixture was washed three times with 200 μl of PBS-T (PBS (phosphate buffered saline)+0.05% (v/v) Tween 20) per well, and blocked with 100 μl of 5% FCS (fatal calf serum)/PBS solution per well at room temperature for 1 to 2 hr. Thereafter, the mixture was washed three times with PBS-T (200 μl/well), a diluted serum sample (100 μl/well) or the same amount of 5% FCS/PBS solution as a control was added, and the mixture was incubated at 37° C. for 1 hr. Thereafter, the mixture was washed five times with PBS-T (200 μl/well), a diluted biotinylated anti-mouse IgG1 antibody (100 μl/well) was added, and the mixture was incubated at 37° C. for 45 min. Thereafter, the mixture was washed five times with PBS-T (200 μl/well), a diluted anti-biotin-HRP antibody was added (100 μl/well), and the mixture was incubated at 37° C. for another 30 min. Thereafter, the mixture was washed five times with PBS-T (200 μl/well), TMB substrate solution was added (100 μl/well), and the mixture was incubated at room temperature for 10 to 15 min. Thereafter, a reaction quenching liquid (2N sulfuric acid solution) was added (50 μl/well) to discontinue a color developing reaction, and the absorbance (OD Value=450 nm) was measured by a microplate reader.
One week later, the secondary immunization was carried out by dorsal-subcutaneous administration of solutions similar to those of the above-mentioned (1) to (6) again. Two weeks from the secondary immunization, the whole blood and spleen were extracted under anesthesia, and the obtained serum sample was measured for anti OVA-specific IgG1 subclass antibody.
8-Week-old female BALB/c mice were divided into groups (N=6), and each group was primarily immunized by dorsal-subcutaneous administration of (1) ovalbumin (OVA) ([…] administration group), (2) OVA (10 μg) and, as an adjuvant, N,N′-bis(2-heptylundecanoyl)-L-cystine dimethyl ester (SZ23) ([…]), (3) OVA (10 μg) and N,N′-bis(dodecanoyl)-L-cystine dimethyl ester (SZ24) ([…]), and (4) saline (saline single administration group), each per mouse. One week later, the secondary immunization was carried out by dorsal-subcutaneous administration of solutions similar to those of the above-mentioned (1) to (4) again. Two weeks from the secondary immunization, the whole blood was extracted under anesthesia, and the obtained serum sample was measured for anti OVA-specific IgG1 subclass antibody. SZ24 is disclosed in JP-A-4-230359, which is incorporated herein by reference in its entirety.
8-Week-old female BALB/c mice were divided into groups (N=6), and each group was primarily immunized by dorsal-subcutaneous administration of (1) ovalbumin (OVA) ([…] administration group), (2) OVA (10 μg) and, as an adjuvant, N,N′-bis(2-tetradecylhexadecanoyl)-L-cystine dimethyl ester (SZ37) (0.256 μmol) added to saline, (3) OVA (10 μg) and N,N′-bis(2-octadecyleicosanoyl)-L-cystine dimethyl ester (SZ38) (0.256 μmol) added to saline, (4) OVA (10 μg) and SZ37 (0.256 μmol) dissolved or dispersed in 5% αCD-added saline, and (5) OVA (10 μg) and SZ38 (0.256 μmol) dissolved or dispersed in 5% αCD-added saline, each per mouse. One week later, the secondary immunization was carried out by dorsal-subcutaneous administration of solutions or dispersions similar to those of the above-mentioned (1) to (5) again. […]

[2] = test system: anti-influenza IgG1 subclass antibody; test: Intranasal influenza vaccine adjuvant test: anti-influenza IgG1 subclass antibody in serum; format: in vivo, BALB/c mice; settings: twice, compared to influenza vaccine single administration group
Method: 8-Week-old female BALB/c mice were divided into groups (N=6), and each group was primarily immunized by intranasal administration of (1) saline, (2) influenza vaccine (Influenza HA Vaccine “SEIKEN”, manufactured by Denka Seiken Co. Ltd.) (20 μl) diluted with saline (influenza vaccine single administration group) as an antigen, (3) influenza vaccine (20 μl) and N,N′-bis(octadecanoyl)-L-cystine dimethyl ester (SZ35) (0.55 μg) as an adjuvant diluted with saline, (4) influenza vaccine (20 μl) and N,N′-bis(octadecanoyl)-L-cystine dimethyl ester (SZ35) (1.64 μg) as an adjuvant diluted with saline, and (5) influenza vaccine (20 μl) and N,N′-bis(octadecanoyl)-L-cystine dimethyl ester (SZ35) (4.92 μg) as an adjuvant diluted with saline, each per mouse. Two weeks later, the secondary immunization was carried out by intranasal administration of solutions similar to those of the above-mentioned (1) to (5) again. Two weeks from the secondary immunization, the whole blood was extracted under anesthesia, and nasal cavity washing was performed. The obtained serum samples were measured for anti-influenza IgG1 subclass antibody and HI titer assay (hemagglutination inhibition test) was performed. As a nasal cavity wash, thorax of mouse was opened to expose trachea, the trachea was incised, an Atom venous catheter with clause was inserted and 1 mL of saline was injected. The liquid discharged from the nose was centrifuged at 10000 g for 3 min, and the supernatant was recovered and used as a nasal cavity wash sample. The nasal cavity wash sample was subjected to the measurement of anti-influenza IgA antibody and IgG antibody. The measurement method was as follows.
(§1) 0.5 μg/ml influenza vaccine (Influenza HA Vaccine “SEIKEN”, manufactured by Denka Seiken Co. Ltd.) was added to a 96 well plate by 100 μl per well, and the mixture was incubated at 4° C. overnight. […] Thereafter, a reaction quenching liquid (2N sulfuric acid solution) was added (50 μl/well) to discontinue a color developing reaction, and the absorbance (OD Value=450 nm) was measured by a microplate reader.

[3] = test system: HA antigen (A/California/7/2009(H1N1)); format: in vivo, BALB/c mice; settings: intranasal, twice, compared to influenza vaccine single administration group
[4] = test system: anti-influenza IgA antibody; test: Intranasal influenza vaccine adjuvant test: anti-influenza IgA antibody in nasal cavity wash; format: in vivo, BALB/c mice; settings: 4.92 μg with influenza vaccine 20 μl, twice, compared to influenza vaccine single administration group
Method: (§2) 8-Week-old female BALB/c mice were divided into groups (N=6), and each group was primarily immunized by intranasal administration of (1) saline, (2) influenza vaccine (Influenza HA Vaccine “SEIKEN”, manufactured by Denka Seiken Co. Ltd.) (20 μl) diluted with saline (influenza vaccine single administration group) as an antigen, (3) influenza vaccine (20 μl) and N,N′-bis(octadecanoyl)-L-cystine dimethyl ester (SZ35) (0.55 μg) as an adjuvant diluted with saline, (4) influenza vaccine (20 μl) and N,N′-bis(octadecanoyl)-L-cystine dimethyl ester (SZ35) (1.64 μg) as an adjuvant diluted with saline, and (5) influenza vaccine (20 μl) and N,N′-bis(octadecanoyl)-L-cystine dimethyl ester (SZ35) (4.92 μg) as an adjuvant diluted with saline, each per mouse. […] The obtained serum samples were measured for anti-influenza IgG1 subclass antibody and HI titer assay (hemagglutination inhibition test) was performed. […]
as §1

[5] = test system: anti-influenza IgG antibody; test: Intranasal influenza vaccine adjuvant test: anti-influenza IgG antibody in nasal cavity wash; format: in vivo, BALB/c mice; settings: 4.92 μg with influenza vaccine 20 μl, twice, compared to influenza vaccine single administration group
Method: as §2, §1

[6] = test system: anti OVA-specific IgE antibody; test: Allergy induction activity test: anti OVA-specific IgE antibody in serum; format: in vivo, BALB/c mice; settings: dorsal-subcutaneous, compared to OVA single administration group
Method: 8-Week-old female BALB/c mice were divided into groups (N=6), and each group was primarily immunized by dorsal-subcutaneous administration of (1) ovalbumin (OVA) (10 μg) dissolved in saline as an antigen (OVA single administration group), (2) OVA (10 μg) and, as an adjuvant, N,N′-bis(2-heptylundecanoyl)-L-cystine dimethyl ester (SZ23) (2.56 μmol) (corresponding to 0.2 mg based on aluminum hydroxide gel adjuvant) dissolved in saline (SZ23; 2.56 μmol addition group), (3) OVA (10 μg) and SZ23; 0.256 μmol dissolved in saline (SZ23; 0.256 μmol addition group), (4) OVA (10 μg) and SZ23; 0.0256 μmol dissolved in saline (SZ23; 0.0256 μmol addition group), (5) OVA (10 μg) and aluminum hydroxide gel adjuvant (2.56 μmol) (0.2 mg) dissolved in saline (ALUM addition group, positive control), and (6) saline (saline single administration group), per each mouse. One week later, the secondary immunization was carried out by dorsal-subcutaneous administration of solutions similar to those of the above-mentioned (1) to (6) again. Two weeks from the secondary immunization, the whole blood and spleen were extracted under anesthesia, and the obtained serum sample was measured for anti OVA-specific IgG1 subclass antibody.
The serum sample obtained in Example 2 was measured for an anti OVA-specific IgE antibody. The measurement method of the anti OVA-specific IgE antibody is as follows.
DS mouse IgE ELISA (OVA) kit manufactured by DS Pharma Biomedical Co., Ltd. was used. The protocol is briefly shown below.
The serum sample and a standard reagent for drawing an analytical curve were diluted with a buffer and, after stirring, left standing at room temperature for 10 min. The sample and the standard solution were added to a plate bound with an IgE capture antibody in advance and, after stirring, the mixture was left standing at room temperature for 60 min. […] A reaction quenching liquid was added, the mixture was stirred, and the absorbance (OD Value=450 nm) was immediately measured.

[7] = test system: Human monocyte cell line THP-1; test: Immunostimulatory effect on human monocyte cell line (CCK-8 cell proliferation, Stimulation Index); format: cell-based; settings: 24 hr, compared to well added only with medium
[8] = test system: Mouse macrophage-like cell line RAW; test: Immunostimulatory effect on mouse macrophage-like cell line (CCK-8 cell proliferation, Stimulation Index); format: cell-based; settings: 24 hr, compared to well added only with medium
[9] = 0.256 μmol dispersed in 5% αCD-added saline with OVA 10 μg, compared to control (OVA in 5% αCD-added saline)
[10] = 2.56 μmol in saline with OVA 10 μg, primary + secondary immunization, serum two weeks after, compared to OVA single administration group
[11] = 0.55 μg with influenza vaccine 20 μl
[12] = 1.64 μg with influenza vaccine 20 μl
[13] = 4.92 μg with influenza vaccine 20 μl

Q: What does the source list for `CCCCCCCCCCCCCCCCCC(=O)N[C@@H](CSSC[C@H](NC(=O)CCCCCCCCCCCCCCCCC)C(=O)OC)C(=O)OC` [SZ35, N,N′-bis(octadecanoyl)-L-cystine dimethyl ester]?
A: production of anti OVA-specific IgG1 subclass antibody [1, 9]: significantly increased; production of anti OVA-specific IgG1 subclass antibody [1, 10]: significantly increased; production of anti-influenza IgG1 subclass antibody in the serum [2, 11]: significantly increased; production of anti-influenza IgG1 subclass antibody in the serum [2, 12]: significantly increased; production of anti-influenza IgG1 subclass antibody in the serum [2, 13]: significantly increased; HI antibody value in the serum [3, 11]: significantly increase; HI antibody value in the serum [3, 12]: significantly increase; HI antibody value in the serum [3, 13]: significantly increase; production of anti-influenza IgA antibody in the nasal cavity wash [4]: significantly increased; production of anti-influenza IgG antibody in the nasal cavity wash [5]: significantly increased

Q: Which “production of anti OVA-specific IgG1 subclass antibody” value ([1]; 0.0256 μmol in saline with OVA 10 μg, compared to OVA single administration group) does the source give for `CCCCCCCCCC(CCCCCCC)C(=O)N[C@@H](CSSC[C@H](NC(=O)C(CCCCCCC)CCCCCCCCC)C(=O)OC)C(=O)OC` (stereo partly drawn) [SZ23, N,N′-bis(2-heptylundecanoyl)-L-cystine dimethyl ester] here?
A: The value was “significantly increased”.

Q: What about the “production of anti OVA-specific IgG1 subclass antibody” value [1, 9] of the same compound?
A: The value was “significantly increased”.

Q: What about the “production of anti OVA-specific IgG1 subclass antibody” value ([1]; 0.256 μmol in saline with OVA 10 μg, compared to OVA single administration group) of the same compound?
A: Its value is “significantly increased”.

Q: And the “production of anti OVA-specific IgG1 subclass antibody” value [1, 10]?
A: Its value is “significantly increased”.

Q: And the “production of anti OVA-specific IgG1 subclass antibody relative to ALUM addition group” value ([1]; all addition groups 2.56, 0.256 and 0.0256 μmol in saline, compared to aluminum hydroxide gel adjuvant 2.56 μmol (0.2 mg))?
A: Its value is “of the same level”.

Q: What about the “production of anti OVA-specific IgE antibody” value ([6]; 0.0256 μmol in saline with OVA 10 μg) of the same compound?
A: The value was “not observed”.

Q: And the “production of anti OVA-specific IgE antibody” value ([6]; 0.256 μmol in saline with OVA 10 μg)?
A: The value was “not observed”.

Q: What about the “production of anti OVA-specific IgE antibody” value ([6]; 2.56 μmol in saline with OVA 10 μg) of the same compound?
A: The value was “not observed”.

Q: What about the “cell proliferation (Stimulation Index)” value ([7]; THP-1, final concentration 400 nM) of the same compound?
A: Its value is “significant cell proliferation”.

Q: What about the “cell proliferation (Stimulation Index)” value ([7]; THP-1, final concentration 4 μM) of the same compound?
A: Its value is “significant cell proliferation”.

Q: What about the “cell proliferation (Stimulation Index)” value ([8]; final concentration 4 nM) of the same compound?
A: The value was “significant cell proliferation”.

Q: And the “cell proliferation (Stimulation Index)” value ([8]; final concentration 400 nM)?
A: The value was “significant cell proliferation”.

Q: And the “cell proliferation (Stimulation Index)” value ([8]; final concentration 4 μM)?
A: The value was “significant cell proliferation”.
